Laboratory results as given in PMC10967572, “Induction of Oxidative Stress and Ferroptosis in Triple-Negative Breast Cancer Cells by Niclosamide via Blockade of the Function and Expression of SLC38A5 and SLC7A11” (Antioxidants, 2024).
Structures can show the parent of a compound that is named as a salt. Residues, ends and D or L forms follow the SMILES beside them. *: point of attachment. Cbz = O=C(OCc1ccccc1)*; CH2F = FC*

Columns and labels:
[1] = system: Nrf2 target genes (SLC7A11, HO-1, GCLC, GCLM); test: qRT-PCR of Nrf2 target genes in TNBC cells; format: cell-based, human; conditions: MB231, TXBR100 and MB453, Se-Met 1 mM, 16 h
Procedure: (§1) Total RNA was extracted from cells using TRIzol Reagent (ThermoFisher Scientific, Waltham, MA, USA) and the RNA was reverse-transcribed using a high-capacity cDNA reverse transcription kit (ThermoFisher Scientific, Waltham, MA, USA) according to the manufacturer’s protocol. Quantitative RT-PCR was performed with Takara Taq Hot Start Version (TaKaRa Biotechnology, Shiga, Japan) or Power SYBR Green PCR master mix (Bio-Rad, Hercules, CA, USA). Primer sequences are shown in Supplemental Table S1. The relative mRNA expression was determined by the 2^−∆∆Ct method. Additionally, 18S was used as a housekeeping gene for normalization.

SLC38A5 [2] = target: SLC38A5 (Homo sapiens, UniProt Q8WUX1); test: Inhibition of SLC38A5-mediated [3H]-serine uptake in TNBC cells; conditions: IC50 for the inhibition of SLC38A5-mediated serine uptake, serine 5 μM, LiCl buffer pH 8.5 with 5 mM tryptophan
SLC7A11 = SLC7A11 transport activity (glutamate uptake) after treatment of cells; format: cell-based, human; conditions: MB231, TXBR100 and MB453 cells treated before uptake
Procedure: The transport activity of SLC7A11 was calculated by subtracting the diffusional component from total uptake. […] Confluent cultures were used for uptake measurements.

Nrf2 = Nrf2 expression and subcellular localization (immunostaining, Western blot, qRT-PCR) in TNBC cells; format: cell-based, human; conditions: MB231 and TXBR100; 24 h; Se-Met 250 μM and 1 mM, monomethylfumarate 0.1 mM; immunostaining and Western blot
Procedure: as §1
Cells and tumor tissues were lysed in Pierce™ RIPA buffer (ThermoFisher Scientific, Waltham, MA, USA) supplemented with Halt™ Protease and Phosphatase Inhibitor Cocktail (ThermoFisher Scientific, Waltham, MA, USA). Homogenates were centrifuged, and supernatants were used for protein measurement via Pierce™ BCA Protein Assay Kit (ThermoFisher Scientific, Waltham, MA, USA). […] Western blot samples were prepared in Laemmli sample buffer (Bio-Rad Laboratories, Hercules, CA, USA). They were loaded onto a SDS–PAGE gel and transferred onto a PVDF membrane (Bio-Rad Laboratories, Hercules, CA, USA). The membrane was blocked and antibodies diluted in 5% nonfat dry milk (Bio-Rad Laboratories, Hercules, CA, USA) or in 5% bovine serum albumin (Irvine Scientific, Santa Ana, CA, USA) were used. Protein bands were visualized using Pierce™ ECL Western Blotting Substrate (ThermoFisher Scientific, Waltham, MA, USA) and developed on the autoradiography film (Santa Cruz, Dallas, TX, USA). Primary antibodies were purchased either from Cell Signaling (Danvers, MA, USA) [anti-GPX4 (#52455), anti-FTH (#4393), anti-HSP60 (#12165), anti-phospho-p70S6K (#9205), anti-p70S6K (#2708)] or from Abcam (Waltham, MA, USA) [Nrf2 (#ab62352)]. Secondary antibody Horseradish peroxidase-conjugated goat anti-rabbit IgG (#1706515) was purchased from Bio-Rad Laboratories (Hercules, CA, USA). For quantification of protein levels by the densitometric analysis, the experiment was carried out in triplicate and the data were collected from the resultant three Western blots.

[3] = system: MB231 cells and TXBR100 cells; test: Lipid radical (ferroptosis) assay with LipiRadical Green; format: cell-based, human; conditions: inhibitor 10 μM with niclosamide 5 μM; MB231 and TXBR100
Procedure: Lipid radical (ferroptosis) assay and iron assay were performed as follows. Cells were cultured on a 25 mm glass coverslip until they reached 60–70% confluency (~48 h). At the time of the experiment, cells were washed with NaCl buffer, pH 7.5 and then incubated with 1 µM of LipiRadical Green (a lipid radical detection reagent, FDV-0042, Funakoshi, Tokyo, Japan) or Ferro-orange (an iron detection probe, F374, Dojindo, Rockville, MD, USA) in NaCl buffer, pH 7.5 for 20 min and then washed with NaCl buffer, pH 7.5. To analyze the effects of modifiers of iron levels and lipid peroxidation, the cells were co-treated with the modifiers and the respective fluorescent probe for 20 min and then washed. The glass coverslip containing the cells was then probed under an inverted microscope. The fluorescence imaging was captured using a Nikon T1-E microscope with A1 confocal super-resolution module (Nikon, Dallas, TX, USA), with a 60× objective, at 488 nm. The images represent a maximum projection intensity derived from a Z-stack. The fluorescence quantification was performed by measuring the corrected total cell fluorescence (CTCF) using Image J (version: 2.14.0/1.54f) and the following formula; CTCF = (integrated density) − (area of cell of interest) × (mean fluorescence of background).

[4] = system: TNBC cells (MB231 and TXBR100); test: MTT cell proliferation / viability assay; format: cell-based, human; conditions: niclosamide 1 μM with inhibitor 10 μM (hydroxychloroquine 25 μM), 48 h
Procedure: Cells were seeded in 96-well plates; after 24 h, niclosamide treatment was initiated. Cells were then cultured for 72 h with fresh medium containing freshly prepared niclosamide supplied every 24 h. Cells were washed with phosphate-buffered saline twice followed by MTT reagent (ATCC). Treatment and lysis of the cells were done as per the manufacturer’s instructions. Absorbance of the lysate was measured at 550 nm. Cell viability assay with various cell-death inhibitors was also performed as described above. Cells were treated with niclosamide (1 µM) along with cell death inhibitors (10 µM), except hydroxychloroquine (25 µM) for 48 h.

[5] = system: MB231 cells and TXBR100 cells; test: Cellular glutathione levels (GSH-Glo assay); format: cell-based, human; conditions: Homo sapiens; buthionine sulfoximine 100 μM; both cell lines (MB231, TXBR100)
Procedure: Control and niclosamide-treated cells were used for measurement of cellular glutathione levels as instructed in the manufacturer’s protocol (GSH-Glo assay, Promega, Madison, WI, USA). The levels of malondialdehyde were measured using lipid peroxidation kit [Lipid Peroxidation (MDA) Assay Kit (MAK085), Millipore-sigma, St. Louis, MO, USA].

SLC38A5 [6] = system: SLC38A5; set-up: method as in PMID 11243884, PMID 37812701; conditions: cited from earlier work

Chain of SLC38A5 (Homo sapiens, UniProt Q8WUX1) (Q8WUX1 whole entry): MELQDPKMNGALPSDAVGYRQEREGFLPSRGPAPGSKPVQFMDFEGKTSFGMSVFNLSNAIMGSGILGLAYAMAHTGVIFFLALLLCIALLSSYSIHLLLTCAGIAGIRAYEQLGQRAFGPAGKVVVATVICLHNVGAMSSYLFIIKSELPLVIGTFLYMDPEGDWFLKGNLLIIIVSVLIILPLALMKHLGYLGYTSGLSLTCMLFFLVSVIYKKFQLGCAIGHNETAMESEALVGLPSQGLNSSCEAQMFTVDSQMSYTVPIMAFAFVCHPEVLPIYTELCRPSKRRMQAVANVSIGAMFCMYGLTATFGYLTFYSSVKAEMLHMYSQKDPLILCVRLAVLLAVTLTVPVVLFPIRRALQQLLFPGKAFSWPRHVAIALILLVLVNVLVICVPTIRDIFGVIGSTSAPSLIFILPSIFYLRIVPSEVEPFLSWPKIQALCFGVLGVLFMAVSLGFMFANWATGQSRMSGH

| SMILES | transport activity of SLC7A11 (glutamate uptake) in treated cells (SLC7A11) | cellular levels and nuclear localization of Nrf2 (Nrf2) | effect of cell death inhibitor on niclosamide-induced increase in lipid radical fluorescence [3] | effect of cell death inhibitor on cell viability in the presence of niclosamide [4] | further results |
| --- | --- | --- | --- | --- | --- |
| C[Se]CC[C@H](N)C(=O)O [Se-Met, seleno-methionine] | increased substantially | increased | – | – | mRNA levels for Nrf2 targets SLC7A11, HO-1, GCLC and GCLM [1]: significant increase; IC50 (SLC38A5 [2]; MB231 cells): 680 µM; IC50 (SLC38A5 [2]; TXBR100 cells): 453 µM |
| COC(=O)C[C@H](NC(=O)[C@H](C)NC(=O)[C@@H](NC(=O)OCc1ccccc1)C(C)C)C(=O)CF [ZVAD-fmk] (Cbz-Val-Ala-Asp(OMe)-CH2F) | – | – | did not have any effect | failed to promote cell viability | – |
| CCCCS(=N)(=O)CCC(N)C(=O)O (centres unmarked) [buthionine sulfoximine] | – | – | – | – | inhibition at 100 µM [5]: ~90% |
| CCOC(=O)c1ccc(NC2CCCCC2)c(N)c1 [ferrostatin 1, ferrostatin-1] | – | – | blocked this increase | improved cell viability | – |
| CCN(CCO)CCCC(C)Nc1ccnc2cc(Cl)ccc12 (centres unmarked) [hydroxychloroquine] | – | – | – | failed to promote cell viability | – |
| CSCC[C@H](N)C(=O)O [methionine] | did not have any effect | did not have any noticeable effect | – | – | IC50 (SLC38A5 [2]; MB231 cells): 518 µM; IC50 (SLC38A5 [2]; TXBR100 cells): 316 µM |
| COC(=O)/C=C/C(=O)O [monomethylfumarate, monomethyl fumarate] | stimulatory effect | increased | – | – | – |
| CN1C(=O)C(Cc2c[nH]c3ccccc23)NC1=S (centres unmarked) [necrostatin, necrostatin-1] | – | – | did not have any effect | failed to promote cell viability | – |
| N[C@@H](CO)C(=O)O [serine] | – | – | – | – | Kt value for SLC38A5-mediated transport (SLC38A5 [6]): 200 to 1300 µM |
